In patent publication EP0745595A1, “3-(3-Aryloxyphenyl)-1-(substituted methyl)-s-triazine-2,4,6-oxo or thiotrione herbicidal agents” (American Cyanamid Company, priority 1995, dated 1996):

Columns and labels:
Type in all cases: in vivo
CASSIA OBTUSIFOLIA, L. = test: Preemergence herbicidal evaluation, CASOB (Sicklepod); conditions: rated four to five weeks after treatment
Method in brief: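 Preemergence herbicidal activity against sicklepod was assessed by planting seed mixed with potting soil atop about one inch of soil in pint cups. After treatment the cups were watered and handled per standard greenhouse practice. Tests ended four to five weeks later, with plant stand, vigor, malformation, size, chlorosis and overall appearance scored 0-9 relative to a control.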

[1] = tested on: GLYCINE MAX(L) MERR. CV. WILLIAMS; test: Preemergence herbicidal evaluation, GLXMAW (Soybean, Williams); conditions: rated four to five weeks after treatment
Method in brief: (§1)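 Injury scored visually (0–9; stand, vigor, malformation, size, chlorosis) versus untreated control, four to five weeks post-treatment. Application: aqueous acetone spray onto freshly planted soil cups, equivalent to about 0.125 to 0.50 kg/ha, plants then kept under standard greenhouse care.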

[2] = tested on: ORYZA SATIVA, L. TEBONNET; test: Preemergence herbicidal evaluation, ORYSAT (Rice, Tebonnet); conditions: rated four to five weeks after treatment
Method in brief: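 Preemergence herbicidal activity on Tebonnet rice was assessed using pint cups of seeded potting soil kept under conventional greenhouse care after treatment. Tests ended four to five weeks later. Each cup received a 0-9 rating from visual comparison with a control covering stand, vigor, malformation, size, chlorosis and overall appearance.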

ZEA MAYS L. = test: Preemergence herbicidal evaluation, ZEAMX (Corn, Field); conditions: rated four to five weeks after treatment
Method in brief: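 Preemergence herbicidal activity on field corn: seeds in potting soil were sown atop roughly one inch of soil in separate pint cups, treated, and grown under standard greenhouse care. Four to five weeks post-treatment, stand, vigor, malformation, size, chlorosis and overall appearance were compared with a control and scored 0-9.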

[3] = tested on: ECHINOCHLOA ORYZOIDES (ARD.)FRITSCH; test: Preemergence weed control under flooded paddy conditions, ECHORC (Watergrass (Calif.)); conditions: 0.500 kg/ha, preemergence, 3-4 weeks after treatment
Method in brief: (§2)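 In undrained pots of silt loam flooded to 1.5-3 cm, compounds are pipetted into the water before emergence at the equivalent of about 0.5, 0.25, 0.125 and 0.063 kg/ha. Plants are scored 0-9 for stand, vigor, malformation, size and chlorosis at test end (3-4 weeks).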

CYPERUS IRIA = test: Preemergence weed control under flooded paddy conditions, CYPIR (Rice Flatsedge); conditions: 0.500 kg/ha, preemergence, 3-4 weeks after treatment
Method in brief: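 This preemergence test mimicked flooded paddy conditions: rice flatsedge propagules were sown in the upper 0.5 cm of silt loam in undrained 32 oz. containers (10.5 cm diameter), with water held 1.5 to 3 cm over the soil. After normal greenhouse care, plants were scored 0-9 for stand, vigor, malformation, size, chlorosis and appearance relative to controls.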

[4] = tested on: CYPERUS SEROTINUS, ROTTB.; test: Preemergence weed control under flooded paddy conditions, CYPSE (Flatsedge); conditions: 0.500 kg/ha, preemergence, 3-4 weeks after treatment
Method in brief: as §2

[…], PRESL. = Preemergence weed control under flooded paddy conditions, MOOVA (Monochoria); conditions: 0.500 kg/ha, preemergence, 3-4 weeks after treatment
Method in brief: as §2

SAGITTARIA PYGMAEA, L. = test: Preemergence weed control under flooded paddy conditions, SAGPY (Arrowhead (Pygmaea)); conditions: 0.500 kg/ha, preemergence, 3-4 weeks after treatment
Method in brief: as §2

[5] = tested on: ABUTILON THEOPHRASTI, MEDIC.; test: Postemergence herbicidal evaluation, ABUTH (Velvetleaf)
Method in brief: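 This postemergence herbicide test used two-week-old velvetleaf seedlings grown in jiffy flats. Each compound was sprayed at 40 psi as a dispersion in 50/50 acetone/water with 0.5% TWEEN®20 surfactant. Plants then received routine greenhouse care. After four to five weeks, injury was scored visually on a 0-9 scale against a control, and replicate tests were averaged.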

GALIUM APARINE = test: Preemergence herbicidal evaluation, GALAP (Galium); conditions: Rate 0.500 kg/ha, rated four to five weeks after treatment
Method in brief: as §1

[6] = tested on: GLYCINE MAX(L) MERR. CV. WILLIAMS; test: Postemergence herbicidal evaluation, GLXMAW (Soybean, Williams); set-up: key to GLXMAW rating / Herbicidal effect rating, GLXMAW / GLXMAW: 0-9 visual rating scale vs untreated control; conditions: Rate 0.500 kg/ha
Method in brief: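 Herbicidal injury to Williams soybean was assessed after a postemergence spray of two-week-old seedlings grown in jiffy flats. Compounds were dispersed in an acetone/water (50/50) mixture with 0.5% TWEEN®20 surfactant and applied at 40 psi. After four to five weeks in the greenhouse, stand, vigor, malformation, size and chlorosis were compared against a control on a 0-9 scale, and results from replicate tests were averaged.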

[7] = tested on: ORYZA SATIVA, L. TEBONNET; test: Postemergence herbicidal evaluation, ORYSAT (Rice, Tebonnet); set-up: key: 0-9 visual rating scale vs untreated control; conditions: Rate 0.500 kg/ha
Method in brief: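 This postemergence greenhouse test used Oryza sativa cv. Tebonnet seedlings grown about two weeks in jiffy flats. Test material in 50/50 acetone/water with 0.5% TWEEN®20 surfactant was applied through a spray nozzle at 40 psi. Four to five weeks later, stand, vigor, malformation, size, chlorosis and overall appearance were rated 0-9 relative to a control, and repeat tests were averaged.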

Structure (SMILES) | CASOB herbicidal rating (CASSIA OBTUSIFOLIA, L.; Rate 0.500 kg/ha) | GLXMAW herbicidal rating ([1]; Rate 0.500 kg/ha) | ORYSAT herbicidal rating ([2]; Rate 0.500 kg/ha) | ZEAMX herbicidal rating (ZEA MAYS L.; Rate 0.500 kg/ha) | Herbicidal effect rating, ECHORC [3] | Herbicidal effect rating, CYPIR (CYPERUS IRIA) | Herbicidal effect rating, CYPSE [4] | Herbicidal effect rating, MOOVA ([…], PRESL.) | Herbicidal effect rating, SAGPY (SAGITTARIA PYGMAEA, L.) | ABUTH rating ([5]; Rate 0.500 kg/ha) | GALAP herbicidal rating (GALIUM APARINE) | also measured
COC(=O)Cn1c(=O)n(C)c(=O)n(-c2cc(Oc3ccc(SC)cc3Cl)ccc2[N+](=O)[O-])c1=O [Compound 34, Methyl 3-{5-[2-chloro-4-(methylthio)-phenoxy]-2-nitrophenyl}tetrahydro-5-methyl-2,4,6-trioxo-s-triazine-1(2H)-acetate] | 0.0 | 0.0 | 0.0 | 0.0 | 0.0 | 0.0 | 0.0 | 0.0 | 0.0 | – | – | CASOB herbicidal rating (CASSIA OBTUSIFOLIA, L.; Rate 0.125 kg/ha): 0.0; CASOB herbicidal rating (CASSIA OBTUSIFOLIA, L.; Rate 0.250 kg/ha): 0.0; GLXMAW herbicidal rating ([1]; Rate 0.125 kg/ha): 0.0; GLXMAW herbicidal rating ([1]; Rate 0.250 kg/ha): 0.0; ORYSAT herbicidal rating ([2]; Rate 0.125 kg/ha): 0.0; ORYSAT herbicidal rating ([2]; Rate 0.250 kg/ha): 0.0; ZEAMX herbicidal rating (ZEA MAYS L.; Rate 0.125 kg/ha): 0.0; ZEAMX herbicidal rating (ZEA MAYS L.; Rate 0.250 kg/ha): 0.0
COC(=O)Cn1c(=O)n(C)c(=O)n(-c2cc(Oc3cc(Cl)cc(Cl)c3)ccc2[N+](=O)[O-])c1=O [Compound 35, Methyl 3-[5-(3,5-dichlorophenoxy)-2-nitrophenyl]tetrahydro-5-methyl-2,4,6-trioxo-s-triazine-1(2H)-acetate] | 0.0 | 1.0 | 0.0 | 0.0 | 0.0 | 0.0 | 0.0 | 0.0 | 0.0 | 0.0 | 0.0 | ABUTH rating ([5]; Rate 0.125 kg/ha): 0.0; ABUTH rating ([5]; Rate 0.250 kg/ha): 0.0
COC(=O)Cn1c(=O)n(C)c(=O)n(-c2cc(Oc3ccccn3)ccc2[N+](=O)[O-])c1=O [Compound 38, Methyl tetrahydro-3-methyl-5-[2-nitro-5-(2-pyridyloxy)phenyl]-2,4,6-trioxo-s-triazine-1(2H)-acetate] | 0.0 | 1.0 | 3.0 | 2.0 | 0.0 | 0.0 | 0.0 | 0.0 | 0.0 | 0.0 | 0.0 | GLXMAW rating [6]: 0.5; ORYSAT rating [7]: 0.0
